Data from patent publication US10842874B2, “Sensitization of bacterial cells to quinolone antibiotics” (Massachusetts Institute of Technology, priority 2017, dated 2020).
Converted amounts (≈) assume the structure as drawn.

Key:
[1] = system: E. coli K12 strain MG1655 stationary phase cells; assay: Potentiation assays on stationary phase cultures (metabolites / oxygen plus antibiotic, CFU/mL); format: cell-based, Escherichia coli; settings: for killing of stationary phase E. coli with glucose-fumarate supplementation: different antibiotic concentrations
[2] = system: E. coli K12 strain MG1655; format: cell-based, Escherichia coli
Procedure: At each time point, cells were also serially diluted in PBS and plated on LB agar plates to determine the CFU/mL at the time of treatment. Time points were taken until cells reached maximum carrying capacity. After 24 hours of treatment, 100 μl of cells from each tube was spun down and re-suspended in PBS on a 96-well plate. Cells were then serially diluted and plated on LB agar plates. The CFU/mL at treatment was normalized by the CFU/mL of stationary phase cells (% max CFU/ml).
An overnight culture of E. coli was diluted 1/10, 1/100, 1/1000, and 1/10000 in non-baffled flasks. […] Cells were spun down and re-suspended in PBS, diluted and plated on LB agar plates to determine CFU/ml.

[3] = system: M. smegmatis; settings: exponentially growing cultures (1% maximal density)
[4] = system: M. smegmatis; assay: Minimum inhibitory concentration (MIC); format: cell-based, Mycobacterium smegmatis; settings: Mycolicibacterium smegmatis
[5] = system: S. aureus; settings: exponentially growing cultures (1% maximal density)
[6] = system: M. smegmatis strain mc^2 155; assay: Potentiation assay, glucose-fumarate sensitization of stationary phase culture; format: cell-based, Mycobacterium smegmatis; settings: aerated stationary phase; 0.4% fumarate and/or 0.4% glucose
[7] = MOPS rich media, shaking, 1 μg/mL ciprofloxacin

C[S+](C)[O-] [DMSO]
sensitization of stationary phase cultures to ciprofloxacin by the supplement alone [1, 7]: none of these electron acceptors alone was able to sensitize cells

CC1(C)S[C@@H]2[C@H](NC(=O)[C@H](N)c3ccccc3)C(=O)N2[C@H]1C(=O)O [ampicillin]
killing of stationary phase E. coli with glucose-fumarate supplementation [1]: did not kill stationary phase cells

O=C(O)c1cn(C2CC2)c2cc(N3CCNCC3)c(F)cc2c1=O [ciprofloxacin]
killing at 1 μg/mL (100xMIC) ([2]; 1 μg/mL ciprofloxacin, low and intermediate cell density): maximal killing at low cell density | ability to kill the high-density cell population (DDP) ([2]; dose 1000x the MIC, treatment time 24 hours): inability of ciprofloxacin to kill a fraction of the cell population | reduction in persister cells of ΔrelAspoT mutant compared to wildtype ([2]; stationary phase, 1 μg/mL ciprofloxacin, ppGpp0 strain): 5.5 fold | susceptibility of quinolone hypersensitive mutant recB ([2]; ΔrecB mutant, stationary phase): hypersensitive in stationary phase | number of viable cells at higher doses [3]: below the limit of detection | MIC [4]: 0.5 µg/mL (≈ 1.51 µM) | number of viable cells at higher doses [5]: below the limit of detection

O=C(O)/C=C/C(=O)O [fumarate]
sensitization of stationary phase cultures to ciprofloxacin by the supplement alone [1, 7]: none of these electron acceptors alone was able to sensitize cells | sensitization of high-density cultures to ciprofloxacin by electron acceptor in combination with glucose ([1]; MOPS rich media, shaking, 1 μg/mL ciprofloxacin, with glucose): synergistically sensitized | sensitization of stationary phase cultures to ciprofloxacin [6]: weakly

O=[N+]([O-])[O-].[K+] [nitrate, potassium nitrate]
sensitization of stationary phase cultures to ciprofloxacin by the supplement alone [1, 7]: none of these electron acceptors alone was able to sensitize cells

O=O [oxygen]
susceptibility of stationary phase E. coli to ciprofloxacin with supplementation ([1]; static stationary phase culture, 0.4% glucose, bubbled air, oxygen tension 5-6%, 1 μg/mL ciprofloxacin): minimal effect

gentamicin
killing of stationary phase E. coli with glucose-fumarate supplementation [1]: sensitized
